Laboratory results published in PubChem BioAssay (NCI).
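Values below derive from 48-hour exposures of cells grown in 96-well plates, with endpoints linearly interpolated between the two concentrations bracketing the appropriate inhibition level. GI50 is the concentration that inhibits growth by half. TGI is the concentration that stops growth completely.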

Key:
Test in all cases: NCI-60 cell line screen, 48 h
COLO 205 colon = tested on: COLO 205 colon
UO-31 renal = tested on: UO-31 renal
HS 578T breast = tested on: HS 578T breast
HCT-15 colon = tested on: HCT-15 colon
SK-MEL-2 melanoma = tested on: SK-MEL-2 melanoma
OVCAR-5 ovarian = tested on: OVCAR-5 ovarian
UACC-257 melanoma = tested on: UACC-257 melanoma
MCF7 breast = tested on: MCF7 breast
SF-268 CNS = tested on: SF-268 CNS
ACHN renal = tested on: ACHN renal
HL-60(TB) leukemia = tested on: HL-60(TB) leukemia
EKVX NSCLC = tested on: EKVX NSCLC
PC-3 prostate = tested on: PC-3 prostate
SNB-19 CNS = tested on: SNB-19 CNS
K-562 leukemia = tested on: K-562 leukemia
LOX IMVI melanoma = tested on: LOX IMVI melanoma
HCT-116 colon = tested on: HCT-116 colon
KM12 colon = tested on: KM12 colon
NCI-H226 lung = tested on: NCI-H226 lung
NCI/ADR-RES ovarian = tested on: NCI/ADR-RES ovarian
M14 melanoma = tested on: M14 melanoma
SF-295 CNS = tested on: SF-295 CNS
HOP-92 NSCLC = tested on: HOP-92 NSCLC
NCI-H23 lung = tested on: NCI-H23 lung
HT29 colon = tested on: HT29 colon
A549 NSCLC = tested on: A549 NSCLC
A498 renal = tested on: A498 renal
MALME-3M melanoma = tested on: MALME-3M melanoma
OVCAR-8 ovarian = tested on: OVCAR-8 ovarian
TK-10 renal = tested on: TK-10 renal
OVCAR-3 ovarian = tested on: OVCAR-3 ovarian
SW-620 colon = tested on: SW-620 colon
U251 CNS = tested on: U251 CNS
SF-539 CNS = tested on: SF-539 CNS
NCI-H460 lung = tested on: NCI-H460 lung
SN12C renal = tested on: SN12C renal
CCRF-CEM leukemia = tested on: CCRF-CEM leukemia
OVCAR-4 ovarian = tested on: OVCAR-4 ovarian
UACC-62 melanoma = tested on: UACC-62 melanoma
SNB-75 CNS = tested on: SNB-75 CNS
786-0 renal = tested on: 786-0 renal
IGROV1 ovarian = tested on: IGROV1 ovarian
MOLT-4 leukemia = tested on: MOLT-4 leukemia
CAKI-1 renal = tested on: CAKI-1 renal
SR leukemia = tested on: SR leukemia
MDA-MB-231 breast = tested on: MDA-MB-231 breast
T-47D breast = tested on: T-47D breast
RXF 393 renal = tested on: RXF 393 renal
SK-MEL-28 melanoma = tested on: SK-MEL-28 melanoma
SK-MEL-5 melanoma = tested on: SK-MEL-5 melanoma
HOP-62 NSCLC = tested on: HOP-62 NSCLC
RPMI-8226 leukemia = tested on: RPMI-8226 leukemia
DU-145 prostate = tested on: DU-145 prostate
BT-549 breast = tested on: BT-549 breast
SK-OV-3 ovarian = tested on: SK-OV-3 ovarian
HCC-2998 colon = tested on: HCC-2998 colon

O=C(NCCCCNC(=O)OCc1ccc2c(Cl)cc(Cl)c(O)c2n1)OCc1ccc2c(Cl)cc(Cl)c(O)c2n1
GI50 (COLO 205 colon): 24.4 µM
TGI (COLO 205 colon): > 100 µM
GI50 (UO-31 renal): 1.65 µM
TGI (UO-31 renal): > 100 µM
GI50 (HS 578T breast): 0.979 µM
TGI (HS 578T breast): > 100 µM
GI50 (HCT-15 colon): 0.89 µM
TGI (HCT-15 colon): > 100 µM
GI50 (SK-MEL-2 melanoma): 1.94 µM
TGI (SK-MEL-2 melanoma): > 100 µM
GI50 (OVCAR-5 ovarian): 47.1 µM
TGI (OVCAR-5 ovarian): > 100 µM
GI50 (UACC-257 melanoma): 31.4 µM
TGI (UACC-257 melanoma): > 100 µM
GI50 (MCF7 breast): 0.406 µM
TGI (MCF7 breast): > 100 µM
GI50 (SF-268 CNS): 1.25 µM
TGI (SF-268 CNS): > 100 µM
GI50 (ACHN renal): 0.537 µM
TGI (ACHN renal): > 100 µM
GI50 (HL-60(TB) leukemia): 0.499 µM
TGI (HL-60(TB) leukemia): 2.2 µM
GI50 (EKVX NSCLC): 10.6 µM
TGI (EKVX NSCLC): > 100 µM
GI50 (PC-3 prostate): 1.64 µM
TGI (PC-3 prostate): > 100 µM
GI50 (SNB-19 CNS): 4.7 µM
TGI (SNB-19 CNS): > 100 µM
GI50 (K-562 leukemia): 0.586 µM
TGI (K-562 leukemia): > 100 µM
GI50 (LOX IMVI melanoma): 0.72 µM
TGI (LOX IMVI melanoma): > 100 µM
GI50 (HCT-116 colon): 0.359 µM
TGI (HCT-116 colon): > 100 µM
GI50 (KM12 colon): 0.543 µM
TGI (KM12 colon): > 100 µM
GI50 (NCI-H226 lung): 24.3 µM
TGI (NCI-H226 lung): > 100 µM
GI50 (NCI/ADR-RES ovarian): 0.336 µM
TGI (NCI/ADR-RES ovarian): > 100 µM
GI50 (M14 melanoma): 0.502 µM
TGI (M14 melanoma): > 100 µM
GI50 (SF-295 CNS): 4.17 µM
TGI (SF-295 CNS): > 100 µM
GI50 (HOP-92 NSCLC): 3.86 µM
TGI (HOP-92 NSCLC): > 100 µM
GI50 (NCI-H23 lung): 1.83 µM
TGI (NCI-H23 lung): > 100 µM
GI50 (HT29 colon): 43.7 µM
TGI (HT29 colon): > 100 µM
GI50 (A549 NSCLC): 6.33 µM
TGI (A549 NSCLC): > 100 µM
GI50 (A498 renal): 0.295 µM
TGI (A498 renal): 5.23 µM
GI50 (MALME-3M melanoma): 2.87 µM
TGI (MALME-3M melanoma): > 100 µM
GI50 (OVCAR-8 ovarian): 0.458 µM
TGI (OVCAR-8 ovarian): > 100 µM
GI50 (TK-10 renal): 13.8 µM
TGI (TK-10 renal): > 100 µM
GI50 (OVCAR-3 ovarian): 0.442 µM
TGI (OVCAR-3 ovarian): > 100 µM
GI50 (SW-620 colon): 0.486 µM
TGI (SW-620 colon): > 100 µM
GI50 (U251 CNS): 2.84 µM
TGI (U251 CNS): > 100 µM
GI50 (SF-539 CNS): 0.288 µM
TGI (SF-539 CNS): 1.4 µM
GI50 (NCI-H460 lung): 0.521 µM
TGI (NCI-H460 lung): > 100 µM
GI50 (SN12C renal): 0.762 µM
TGI (SN12C renal): > 100 µM
GI50 (CCRF-CEM leukemia): 0.398 µM
TGI (CCRF-CEM leukemia): > 100 µM
GI50 (OVCAR-4 ovarian): 4.47 µM
TGI (OVCAR-4 ovarian): > 100 µM
GI50 (UACC-62 melanoma): 2.21 µM
TGI (UACC-62 melanoma): 86.7 µM
GI50 (SNB-75 CNS): 1.23 µM
TGI (SNB-75 CNS): > 100 µM
GI50 (786-0 renal): 4.95 µM
TGI (786-0 renal): > 100 µM
GI50 (IGROV1 ovarian): 1.22 µM
TGI (IGROV1 ovarian): > 100 µM
GI50 (MOLT-4 leukemia): 0.591 µM
TGI (MOLT-4 leukemia): > 100 µM
GI50 (CAKI-1 renal): 0.782 µM
TGI (CAKI-1 renal): > 100 µM
GI50 (SR leukemia): 0.422 µM
TGI (SR leukemia): > 100 µM
GI50 (MDA-MB-231 breast): 0.685 µM
TGI (MDA-MB-231 breast): > 100 µM
GI50 (T-47D breast): 7.61 µM
TGI (T-47D breast): > 100 µM
GI50 (RXF 393 renal): 3.38 µM
TGI (RXF 393 renal): > 100 µM
GI50 (SK-MEL-28 melanoma): 0.809 µM
TGI (SK-MEL-28 melanoma): > 100 µM
GI50 (SK-MEL-5 melanoma): 1.2 µM
TGI (SK-MEL-5 melanoma): 3.95 µM
GI50 (HOP-62 NSCLC): 2.61 µM
TGI (HOP-62 NSCLC): > 100 µM
GI50 (RPMI-8226 leukemia): 0.336 µM
TGI (RPMI-8226 leukemia): > 100 µM
GI50 (DU-145 prostate): 0.855 µM
TGI (DU-145 prostate): > 100 µM
GI50 (BT-549 breast): 2.27 µM
TGI (BT-549 breast): > 100 µM
GI50 (SK-OV-3 ovarian): 5.12 µM
TGI (SK-OV-3 ovarian): > 100 µM
GI50 (HCC-2998 colon): 3.62 µM
TGI (HCC-2998 colon): > 100 µM
